Where no end group is shown, it is not given here.

The values below come from paper PMC8534003, “The Chemokine-Based Peptide, CXCL9(74-103), Inhibits Angiogenesis by Blocking Heparan Sulfate Proteoglycan-Mediated Signaling of Multiple Endothelial Growth Factors” (Cancers, 2021).

In data set [1] the test system is FGF-2. The following applies: cited from earlier work. An excerpt:
Earlier studies that report on targeting HS-mediated interactions most commonly rely on HS mimetics that either mask HS for GF binding or directly interact with the GF, preventing it from binding to HS [39]. […] Pagano et al. reported that the small molecule inhibitor SM27, derived from the FGF-2-binding region of thrombospondin-1 (TSP-1), selectively bound the heparin-binding site of FGF-2 ...

For data set [2], the system named is EGFR and α3β1 integrin / syndecan-4. The following applies: cited from earlier work. An excerpt:
Syndecan-4, the most abundant mammalian syndecan, has been described to function as an independent receptor for several heparin-binding growth factors such as FGFs, VEGFs and PDGFs. Upon ligand binding, the HSPGs oligomerize and initiate signaling components such as mammalian target of rapamycin (mTOR), RAC-α serine/threonine-protein kinase (AKT1) and the Rho family of GTPases, which are r ...

The subject of data set [3] is HMVECs. Briefly: In vitro toxicity assay (LIVE/DEAD viability/cytotoxicity). The following applies: 0.3 or 3 µM, 24 h, calcein-AM/EthD-1, n = 4. It is filed as cell-based, human. The procedure:
HMVECs were seeded in MCDB131 medium supplemented with 3% (v/v) FCS at 8 × 10^3 cells/well in a black, clear bottom 96-well plate coated with 0.1% (v/v) gelatin in PBS. The next day, cells were washed and incubated with control medium (vide supra) alone or in the presence of 0.3 or 3 µM of CXCL9(74-103) or CXCL9(86-103) for 24 h. The negative control cells were treated with 2% (v/v) Triton™ X-100 to induce cell death […] after the start of the experiment, i.e., 1 h prior to the addition of the LIVE/DEAD stain. The toxicity of the peptides was assessed using the LIVE/DEAD viability/cytotoxicity kit (Invitrogen, Carlsbad, CA, USA), according to the manufacturer’s instructions. At 24 h, calcein-acetoxymethyl ester (AM) and ethidium homodimer-1 (EthD-1) in 0.4% (v/v) FCS in DMEM FluoroBrite (Gibco) were added to all wells and the fluorescence was measured in the IncuCyte S3 live cell imaging system (Essen BioScience, Ltd.; Newark, UK).

The target of data set [4] is T1, FGF-2 (Homo sapiens, UniProt P09038).
T1 construct: purchased R&D Systems
T1 sequence (P09038 143-288): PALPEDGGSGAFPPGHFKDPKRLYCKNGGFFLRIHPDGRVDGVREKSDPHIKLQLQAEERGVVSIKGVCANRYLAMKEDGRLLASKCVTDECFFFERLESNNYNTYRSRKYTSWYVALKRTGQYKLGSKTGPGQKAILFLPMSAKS
As to the kind of experiment: Grating-coupled interferometry (GCI). It is filed as binding. The following applies: FGF-2 over immobilized biotinylated CXCL9(74-103), 25 °C, pH 7.4; mean ± SEM, n = 3. The method, then:
GCI experiments were performed on a Creoptix WAVEdelta system (Creoptix AG, Wädenswil, Switzerland), which is a label-free surface biosensor system for the characterization of molecular interactions. 4PCP-STA chips (Creoptix AG) were used, which contain a quasi-planar polycarboxyl-matrix with pre-immobilized streptavidin. The running buffer for the experiments was PBS supplemented with 30 mM NaCl, 15 mM L-Arginine, 0.015% (v/v) Tween® 20 and 0.05 mg/mL BSA at pH 7.4 for reducing nonspecific binding. Chips were conditioned using borate buffer (100 mM sodium borate, 1 M NaCl, pH 9.0). Capture was performed by injecting biotinylated CXCL9(74-103) at a concentration of 2 µg/mL and a flow rate of 10 µL/minute over the chip surface, until a density of +/− 160 was reached. After capture of biotinylated CXCL9(74-103), binding with FGF-2 was studied by injecting an FGF-2 concentration series over the chip surface. […] A reference channel was blocked in the same way. Injections of the FGF-2 analyte were performed at 25 °C, with an association and dissociation time of 120 seconds and a flow rate of 40 µL/min. Absence of mass-transport limitation was verified by repeating the experiment at 50 µL/minute. A 1:3 dilution series with six dilutions (4.53 nM, 13.6 nM, 40.7 nM, 122 nM, 367 nM, 1.10 µM; all in duplicate) was analyzed. […]

“TSP-2: another TSP (thrombospondin) with anti-angiogenic activity”: the “interaction with FGF-2” value in data set [1] is “able to interact with FGF-2 and interfered with HS and FGFR1 binding”.

As for “synstatin (SSTNEGFR): a peptide based on the EGFR interaction motifs”, the “displacement from syndecan and cell migration” value in data set [2] was “displaces the RTK and α3β1 integrin from the syndecan and prevents cell migration”.

As to “KKKQKNGKKHQKKKVLKVRKSQRSRQKKTT [CXCL9(74-103)]”, in data set [3], the “cell viability / toxicity” value is “without inducing any cell toxicity”. In data set [4], the koff turned out to be 0.00207 s⁻¹ and the kon was found to be 20000 M⁻¹ s⁻¹.
